According to patent publication US20060216333A1, “Methods related to the treatment of mucosal associated conditions” (priority 2003, published 2006):

Experiments:
Assay type in all cases: in vivo, rat
[1] = system: TNF; assay: Serum and vaginal tissue TNF after intravaginal dosing of rats (ELISA); settings: for TNF Tissue: vaginal tissue, per 200 mg
Experimental: (§1) In the examples below the serum and intravaginal cytokine data were obtained using the following general test method.
(§2) Rats were acclimated to collars (Lomir Biomedical, Malone, N.Y.) around the neck on two consecutive days prior to actual dosing. Rats were collared to prevent removal of the device and ingestion of the drug. Animals were then dosed intravaginally with a removable device or with […] of cream. Single dosed rats received one intravaginal dose with samples collected at various times following dosing. Blood was collected by cardiac puncture. Blood was allowed to clot briefly at room temperature and serum was separated from the clot via centrifugation. The serum was stored at −20° C. until it was analyzed for cytokine concentrations.
(§3) Following blood collection, the rats were euthanized and their vaginal tract, including the cervix, was then removed and the tissue was weighed, placed in a sealed 1.8 mL cryovial and flash frozen in liquid nitrogen. The frozen vaginal tissue sample was then suspended in 1.0 mL of RPMI medium (Celox, St. Paul, Minn.) containing 10% fetal bovine serum (Atlas, Fort Collins, Colo.), 2 mM L-glutamine, penicillin/streptomycin and 2-mercaptoethanol (RPMI complete) combined with a protease inhibitor cocktail set III (Calbiochem, San Diego, Calif.). The tissue was homogenized using a Tissue Tearor (Biospec Products, Bartlesville, Okla.) for approximately one minute. The tissue suspension was then centrifuged at 2000 rpm for 10 minutes under refrigeration to pellet the debris, and the supernatant collected and stored at −20° C. until analyzed for cytokine concentrations.
(§4) ELISA kits for rat TNF were purchased from BD PharMingen (San Diego, Calif.) and the rat MCP-1 ELISA kits were purchased from BioSource Intl. (Camarillo, Calif.).
(§5) Both kits were performed according to manufacturer's specifications. Results for both TNF and MCP-1 are expressed in pg/mL and are normalized per 200 mg of tissue. […] “Post dosing” means after treatment initiation. For example, if a device was inserted a time 0 hours and removed at 2 hours and cytokines were assayed at 4 hours, then the cytokines were assayed at 4 hours post dosing.

[2] = system: MCP-1; assay: Serum and vaginal tissue MCP-1 after intravaginal dosing of rats (ELISA); settings: for MCP-1 Tissue: vaginal tissue, per 200 mg
Experimental: as §1, §2, §3, §4, §5

[3] = system: rats; assay: Histologic examination of uterus, cervix, vagina, vulva and perineal skin, Example 11; settings: 1% device removed after 2 hours
Experimental: Cotton devices were prepared as described in Example 1. The devices were saturated with either a solution containing 1% by weight of IRM 2 in 50/50 w/w isostearic acid/isopropyl myristate or with 50/50 w/w isostearic acid/isopropyl myristate (vehicle). Three groups of rats were dosed intravaginally 2 times a week for 3 weeks (Tuesday, Friday, Monday, Thursday, Monday, Thursday) with 1% IRM 2 device, vehicle device or with 1% IRM 2 cream. The devices were removed after 2 hours. The cream was left in place. Cytokines were assayed 4 hours post dosing of the final dose. Three more groups of rats were dosed intravaginally with 1% IRM 2 device, vehicle device or with 1% ERM 2 cream. The devices were removed after 2 hours. The cream was left in place. Cytokines were assayed 4 hours post dosing. […] The results are shown in the table below where each value is the mean value for 3 rats.
Groups of 3 rats were treated as described in Example 8 and necropsied 22 hours after the devices were removed. Uterus, cervix, vagina, vulva and perineal skin were collected, fixed and processed routinely for histologic examination.

[4] = 4 hours post dosing, 1% in 50/50 ISA/IPM, cotton pellet device removed after 2 hours, Example 6
[5] = 4 hours post dosing, device 1.0% in 50/50 ISA/IPM, removed after 15 min, Example 4
[6] = 4 hours post dosing, device 1.0% in 50/50 ISA/IPM, removed after 30 min, Example 4
[7] = 4 hours post dosing, device 1.0% in 50/50 ISA/IPM, removed after 60 min, Example 4
[8] = 4 hours post dosing, device 1.0% in 50/50 ISA/IPM, removed after 120 min, Example 4
[9] = 4 hours post dosing, single dose, 1% in 50/50 ISA/IPM cotton device removed after 2 hours, Example 8
[10] = 4 hours post final dose, multiple dose, 2 times a week for 3 weeks, 1% in 50/50 ISA/IPM cotton device removed after 2 hours, Example 8
[11] = Multiple dose (2 times a week for 3 weeks)

Cc1nc2c(N)nc3ccccc3c2n1CC(C)(C)O [IRM 2, 4-amino-α,α,2-trimethyl-1H-imidazo[4,5-c]quinoline-1-ethanol]
TNF Serum [1, 4]: 4 pg/mL
TNF Serum [1, 5]: 0 pg/mL
TNF Serum [1, 6]: 0 pg/mL
TNF Serum [1, 7]: 0 pg/mL
TNF Serum [1, 8]: 0 pg/mL
TNF Serum [1, 9]: 0 pg/mL
TNF Serum [1, 10]: 0 pg/mL
TNF Tissue [1, 4]: 384 pg/mL
TNF Tissue [1, 5]: 493 pg/mL
TNF Tissue [1, 6]: 390 pg/mL
TNF Tissue [1, 7]: 537 pg/mL
TNF Tissue [1, 8]: 716 pg/mL
TNF Tissue [1, 9]: 888 pg/mL
TNF Tissue [1, 10]: 1075 pg/mL
MCP-1 Serum [2, 4]: 114 pg/mL
MCP-1 Serum [2, 5]: 68 pg/mL
MCP-1 Serum [2, 6]: 83 pg/mL
MCP-1 Serum [2, 7]: 118 pg/mL
MCP-1 Serum [2, 8]: 92 pg/mL
MCP-1 Serum [2, 9]: 59 pg/mL
MCP-1 Serum [2, 10]: 87 pg/mL
MCP-1 Tissue [2, 4]: 1016 pg/mL
MCP-1 Tissue [2, 5]: 433 pg/mL
MCP-1 Tissue [2, 6]: 454 pg/mL
MCP-1 Tissue [2, 7]: 889 pg/mL
MCP-1 Tissue [2, 8]: 2462 pg/mL
MCP-1 Tissue [2, 9]: 1390 pg/mL
MCP-1 Tissue [2, 10]: 2353 pg/mL
Lesion incidence: Cervix, Cavitation (epithelium) [3, 11]: 0/3
Lesion incidence: Cervix, Inflammation [3, 11]: 1/3
Lesion incidence: Perineal skin, Exudate on surface, epidermis [3, 11]: 0/3
Lesion incidence: Perineal skin, Inflammation, superficial dermis [3, 11]: 1/3
Lesion incidence: Perineal skin, Spongiosis, epidermis [3, 11]: 1/3
Lesion incidence: Perineal skin, Subcorneal pustules, epidermis [3, 11]: 1/3
Lesion incidence: Vagina, Edema, lamina propria [3, 11]: 0/3
Lesion incidence: Vagina, Inflammation, lamina propria [3, 11]: 3/3
Lesion incidence: Vulva, Edema, lamina propria [3, 11]: 1/3
Lesion incidence: Vulva, Erosion [3, 11]: 0/3
Lesion incidence: Vulva, Inflammation, lamina propria [3, 11]: 3/3
Lesion incidence: Vulva, Intraepithelial pustules [3, 11]: 0/3
Lesion incidence: Vulva, Necrosis, epithelium [3, 11]: 1/3
Lesion incidence: Vulva, Spongiosis, epithelium [3, 11]: 1/3
Lesion incidence: Vulva, Ulceration [3, 11]: 0/3
Lesion incidence: Cervix, Cavitation (epithelium) ([3]; Single dose): 0/3
Lesion incidence: Cervix, Inflammation ([3]; Single dose): 0/3
Lesion incidence: Perineal skin, Exudate on surface, epidermis ([3]; Single dose): 0/3
Lesion incidence: Perineal skin, Inflammation, superficial dermis ([3]; Single dose): 1/3
Lesion incidence: Perineal skin, Spongiosis, epidermis ([3]; Single dose): 0/3
Lesion incidence: Perineal skin, Subcorneal pustules, epidermis ([3]; Single dose): 0/3
Lesion incidence: Vagina, Edema, lamina propria ([3]; Single dose): 0/3
Lesion incidence: Vagina, Inflammation, lamina propria ([3]; Single dose): 3/3
Lesion incidence: Vulva, Edema, lamina propria ([3]; Single dose): 0/3
Lesion incidence: Vulva, Erosion ([3]; Single dose): 0/3
Lesion incidence: Vulva, Inflammation, lamina propria ([3]; Single dose): 3/3
Lesion incidence: Vulva, Intraepithelial pustules ([3]; Single dose): 1/3
Lesion incidence: Vulva, Necrosis, epithelium ([3]; Single dose): 1/3
Lesion incidence: Vulva, Spongiosis, epithelium ([3]; Single dose): 0/3
Lesion incidence: Vulva, Ulceration ([3]; Single dose): 0/3
